According to ChEMBL document CHEMBL5252509, “In depth analysis of kinase cross screening data to identify chemical starting points for inhibition of the Nek family of kinases” (Medchemcomm, 2018):

What was measured:
[1] = biological target: Serine/threonine-protein kinase Nek4 (Homo sapiens) (UniProt P51957); assay: Inhibition of NEK4 (unknown origin) at 10 uM relative to control
[2] = biological target: T1, Serine/threonine-protein kinase Nek5 (Homo sapiens) (UniProt Q6P3R8); assay: Inhibition of NEK5 (unknown origin) at 10 uM relative to control
T1 sequence (whole entry): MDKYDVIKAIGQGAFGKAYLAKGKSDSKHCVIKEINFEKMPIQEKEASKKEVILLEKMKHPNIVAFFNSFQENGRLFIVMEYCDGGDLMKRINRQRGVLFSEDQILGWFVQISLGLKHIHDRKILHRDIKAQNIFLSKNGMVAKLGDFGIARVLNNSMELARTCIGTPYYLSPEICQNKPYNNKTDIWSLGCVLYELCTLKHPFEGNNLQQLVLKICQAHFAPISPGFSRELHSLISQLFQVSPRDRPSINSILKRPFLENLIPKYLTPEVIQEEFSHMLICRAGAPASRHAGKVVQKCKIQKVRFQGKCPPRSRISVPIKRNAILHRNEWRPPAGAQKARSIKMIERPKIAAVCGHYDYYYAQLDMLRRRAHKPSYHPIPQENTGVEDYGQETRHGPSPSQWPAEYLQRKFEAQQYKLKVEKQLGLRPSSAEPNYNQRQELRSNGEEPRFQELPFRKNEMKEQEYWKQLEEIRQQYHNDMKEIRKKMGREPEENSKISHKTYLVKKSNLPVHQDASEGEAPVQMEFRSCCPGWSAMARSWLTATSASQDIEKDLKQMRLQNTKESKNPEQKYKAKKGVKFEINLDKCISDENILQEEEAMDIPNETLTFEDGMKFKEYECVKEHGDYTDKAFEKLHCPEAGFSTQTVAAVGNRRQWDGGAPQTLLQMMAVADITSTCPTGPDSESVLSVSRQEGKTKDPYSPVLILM

[3] = biological target: Serine/threonine-protein kinase Nek7 (Homo sapiens) (UniProt Q8TDX7); assay: Inhibition of NEK7 (unknown origin) at 10 uM relative to control
Chain of Serine/threonine-protein kinase Nek7 (Homo sapiens) (Q8TDX7 whole entry, looked up): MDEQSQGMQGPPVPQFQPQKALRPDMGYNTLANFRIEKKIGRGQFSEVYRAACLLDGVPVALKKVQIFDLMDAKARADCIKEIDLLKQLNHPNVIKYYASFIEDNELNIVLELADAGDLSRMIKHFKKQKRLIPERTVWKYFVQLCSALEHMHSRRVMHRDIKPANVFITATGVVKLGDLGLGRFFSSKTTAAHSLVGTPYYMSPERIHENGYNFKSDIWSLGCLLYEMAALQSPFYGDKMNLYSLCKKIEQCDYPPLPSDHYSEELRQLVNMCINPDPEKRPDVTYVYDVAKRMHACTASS

[4] = biological target: Serine/threonine-protein kinase Nek6 (Homo sapiens) (UniProt Q9HC98); assay: Inhibition of NEK6 (unknown origin) at 10 uM relative to control
Chain of Serine/threonine-protein kinase Nek6 (Homo sapiens) (Q9HC98 whole entry): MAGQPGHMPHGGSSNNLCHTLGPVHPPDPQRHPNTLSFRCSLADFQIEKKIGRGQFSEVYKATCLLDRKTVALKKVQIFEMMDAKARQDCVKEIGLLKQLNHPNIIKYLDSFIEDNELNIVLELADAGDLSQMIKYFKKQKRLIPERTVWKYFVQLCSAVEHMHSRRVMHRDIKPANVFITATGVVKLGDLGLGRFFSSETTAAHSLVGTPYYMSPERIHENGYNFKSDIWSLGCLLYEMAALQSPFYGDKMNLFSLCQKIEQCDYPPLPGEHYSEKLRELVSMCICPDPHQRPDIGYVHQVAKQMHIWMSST

Chain of Serine/threonine-protein kinase Nek4 (Homo sapiens) (P51957 whole entry, looked up): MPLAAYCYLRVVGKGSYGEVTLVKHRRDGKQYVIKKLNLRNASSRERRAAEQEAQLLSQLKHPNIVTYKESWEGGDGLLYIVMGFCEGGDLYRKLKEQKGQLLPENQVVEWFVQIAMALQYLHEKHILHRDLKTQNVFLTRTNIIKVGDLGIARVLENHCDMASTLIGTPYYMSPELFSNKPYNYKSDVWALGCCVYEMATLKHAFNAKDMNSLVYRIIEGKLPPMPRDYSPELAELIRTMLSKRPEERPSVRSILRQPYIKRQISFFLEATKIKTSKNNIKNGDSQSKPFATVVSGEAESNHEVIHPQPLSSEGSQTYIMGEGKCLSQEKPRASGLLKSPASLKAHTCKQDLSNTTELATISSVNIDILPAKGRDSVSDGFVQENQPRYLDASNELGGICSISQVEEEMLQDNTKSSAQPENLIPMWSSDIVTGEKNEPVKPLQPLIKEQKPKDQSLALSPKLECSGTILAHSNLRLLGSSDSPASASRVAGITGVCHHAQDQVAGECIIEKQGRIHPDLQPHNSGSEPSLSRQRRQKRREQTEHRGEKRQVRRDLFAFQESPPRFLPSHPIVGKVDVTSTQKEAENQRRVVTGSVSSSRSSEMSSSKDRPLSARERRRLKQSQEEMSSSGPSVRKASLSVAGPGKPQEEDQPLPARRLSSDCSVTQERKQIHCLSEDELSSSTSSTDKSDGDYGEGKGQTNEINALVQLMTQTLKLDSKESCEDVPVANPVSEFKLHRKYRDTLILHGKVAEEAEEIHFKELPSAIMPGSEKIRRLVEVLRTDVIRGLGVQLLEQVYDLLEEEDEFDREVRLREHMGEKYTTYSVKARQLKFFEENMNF

Row | % control [1] | % control [2] | % control [3] | % control [4] | SMILES
1 | 100% | 1.4% | 45% | 76% | Fc1cc(-c2cc[nH]/c(=N/c3ccc(-n4cnc(N5CCOCC5)n4)cc3)n2)cc(N2CCOCC2)c1
2 | 96% | 100% | 88% | 81% | O=C1NC(=O)/C(=C/c2ccc3nccc(-c4ccncc4)c3c2)S1
